From patent US9890146B2, “Compound having selective EP2 agonist activity” (ONO PHARMACEUTICAL CO., LTD., priority 2014, dated 2018)

Assays:
[1] = system: male monkey (a cynomolgus monkey); test: Intraocular pressure lowering activity after ocular instillation; type: in vivo; settings: Primates, in Macaca fascicularis, topical, maximum rate during 24 hours after ocular instillation of 30 μL, conscious monkey; for inhibition in vivo at 30 µg/mL: administration concentration 30 μg/mL; for inhibition in vivo at 10 µg/mL: administration concentration 10 μg/mL; for inhibition in vivo at 3 µg/mL: administration concentration 3 μg/mL; for inhibition in vivo at 100 µg/mL: administration concentration 100 μg/mL
Method: As can be easily understood by a person skilled in the art, in an in vivo test, since regarding all test compounds, carboxylic acid which is an active body has poor corneal permeability, pharmacological action of the active body was evaluated by ocular instillation administration of a compound which had been converted into an ester such as an ethyl ester or an isopropyl ester, or an alcohol.
A test compound-containing solution (30 μL) which had been adjusted to each of various concentrations was ocular instillation-administered to the left or right eye of a male monkey (a cynomolgus monkey) under consciousness. An intraocular pressure after administration was measured with time from administration initiation to after 24 hours. Upon measurement of an intraocular pressure, a cynomolgus monkey was fixed on a monkey chair, and the monkey was anesthetized by ocular instillation-administering an ocular surface anesthetic (Benoxil eye drops 0.4% Santen Pharmaceutical Co., Ltd.). After mounting of a blepharostat (Handaya Co., Ltd.), an intraocular pressure of both eyes was measured (7 to 8 examples per group) using a pneumatic applanation flat tonometer (Model 30 Classic, REICHERT). A difference between an intraocular pressure value before the administration of a test substance and an intraocular pressure value after the administration of the test substance was calculated as an intraocular pressure lowering rate in accordance with the following equation, and the sustainability of intraocular eye lowering action was evaluated using a maximum intraocular pressure lowering rate during measurement.
The administered concentrations were determined based on the EP2 agonist activities measured by the above-mentioned method.

human EP2 = biological target: T1, human EP2 (Homo sapiens, UniProt P43116); test: Measurement of EP2 agonist activity (measurement of cAMP concentration); type: cell-based; settings: EP2-CHO cells, cAMP production (HTRF), reaction 30 minutes at room temperature; read-out: EP2 agonist activity EC50
T1 construct: expressed in transfected cells; host or cells: CHO cells (EP2-CHO)
T1 sequence (P43116 whole entry): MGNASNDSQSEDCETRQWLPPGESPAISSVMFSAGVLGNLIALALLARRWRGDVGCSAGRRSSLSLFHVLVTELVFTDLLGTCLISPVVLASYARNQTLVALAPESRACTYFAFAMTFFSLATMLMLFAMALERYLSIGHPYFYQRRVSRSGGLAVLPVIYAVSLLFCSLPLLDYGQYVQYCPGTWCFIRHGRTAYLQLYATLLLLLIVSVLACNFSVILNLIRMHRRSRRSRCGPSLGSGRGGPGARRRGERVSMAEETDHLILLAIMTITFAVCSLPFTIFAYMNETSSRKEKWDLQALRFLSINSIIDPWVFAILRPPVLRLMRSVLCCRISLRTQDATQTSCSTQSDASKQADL
Method: Using Chem1 cells or CHO cells in which various prostanoid receptors were forcibly expressed, respectively, agonist activities of test compounds on various prostanoid receptors was determined employing, as a measure, an intracellular cyclic AMP (hereinbelow, abbreviated as “cAMP”) production amount or an intracellular calcium concentration.
The test compound and a control substance (PGE2 and PGF2α) were dissolved in dimethyl sulfoxide (DMSO) to prepare a 10 mmol/L solution. The 10 mmol/L solution thus prepared was thawed upon use, then serially diluted with DMSO, and then diluted with a buffer solution for measurement use or a buffer solution for measurement use 2, and then the resulting solution was subjected to an experiment.
Cells forcibly expressing various prostanoid receptors were standing-cultured at 37° C. in the presence of 5% CO2 using a DMEM medium (Sigma) (for culturing FP-Chem1) containing inactivated (56° C., 30 minutes) 9.8 vol % nondialysed-FBS (Life Technologies), 1 vol % Non Essential Amino Acids (Life Technologies), 10 mmol/L HEPES Buffer Solution (Life Technologies), 0.5 vol % GENETICIN (Life Technologies) and 1% penicillin-streptomycin (Life Technologies) or an α-MEM medium (Sigma) (for culturing EP2-CHO) containing inactivated (56° C., 30 minutes) 9.8 vol % dialysed-FBS (Life Technologies) and penicillin-streptomycin-glutamine (Life Technologies). Subculturing was carried out by the following manner.
The medium was removed, and washed with a phosphate-buffered physiological saline not containing Ca^2+ and Mg^2+ one time. A proper amount of trypsin-EDTA (Life Technologies) was added, and this was incubated at room temperature, cells were peeled, and a medium having a volume which is 10-fold a volume of trypsin-EDTA was added to stop an enzymatic reaction. After cells were recovered into a centrifuging tube, and centrifuged at room temperature for 3 minutes at 120 g, the supernatant was removed. Cells were suspended in a proper amount of a medium, and seeded in a culturing flask.
On the measurement day, a medium was removed, and EP2-CHO was washed with a phosphate-buffered physiological saline containing 2 mmol/L EDTA and not containing Ca^2+ and Mg^2+ one time. A proper amount of the phosphate-buffered physiological saline containing 2 mmol/L EDTA and not containing Ca^2+ and Mg^2+ was added, this was incubated at 37° C. in the presence of 5% CO2, cells were peeled, cells were recovered into a centrifuging tube, and centrifuged at room temperature for 3 minutes at 550 g, and the supernatant was removed. Cells were suspended in a proper amount of a buffer solution for measurement 1 (MEM medium (Invitrogen) containing 1.0 w/v % bovine serum albumin (Sigma) and 2 μmol/L diclofenac (Sigma)), and centrifuged at room temperature for 3 minutes at 200 g, and the supernatant was removed. Cells were suspended in a buffer solution for measurement 2 (MEM medium (Invitrogen) containing 1.0 w/v % bovine serum albumin (Sigma), 2 μmol/L diclofenac (Sigma) and 1 mmol/L 3-isobutyl-1-methylxanthine), and each 25 μL of the suspension was dispensed into a 96-well ½ area plate so that the cell number per well became […]. A buffer solution for measurement 2 (25 μL) containing an agonist at a variety of concentrations was added to carry out a reaction at room temperature for 30 minutes. Measurement of a cAMP concentration was carried out using the cAMP HTRF HiRange kit (CIS bio International). According to the two step protocol of the kit manual, each 25 μL of cAMP-D2 and Cryptase diluted with a lysis buffer were added, and this was incubated at room temperature for 1 hour. After incubation for 1 hour, time resolution fluorescence at 620 nm and 660 nm when excited at 340 nm was measured using SpectraMax M5e (Molecular Device), and a ratio (TRF ratio) was obtained, thereby, a cAMP concentration was calculated from a calibration line. […]

Question: For `OCc1csc([C@H]2CC[C@@H]3[C@@H](COc4ccc5[nH]ccc5c4)[C@H](O)C[C@@H]3O2)n1` [2(5), (2R,4aR,5S,6R,7aS)-2-[4-(hydroxymethyl)-1,3-thiazol-2-yl]-5-[(1H-indol-5-yloxy)methyl]octahydrocyclopenta[b]pyran-6-ol], which inhibition in vivo at 30 µg/mL [1] is on record?
Answer: Its inhibition in vivo at 30 µg/mL is 48%.

Question: With `OCc1csc([C@H]2CC[C@@H]3[C@@H](COc4ccc(C5CC5)c(C5CC5)c4)[C@@H](O)C[C@@H]3O2)n1` [Example 10, (2R,4aR,5S,6S,7aS)-5-[(3,4-dicyclopropylphenoxy)methyl]-2-[4-(hydroxymethyl)-1,3-thiazol-2-yl]octahydrocyclopenta[b]pyran-6-ol] as the molecule, how does the inhibition in vivo at 10 µg/mL [1] read?
Answer: The inhibition in vivo at 10 µg/mL was 40%.

Question: `CCc1cc(OC[C@@H]2[C@H]3CC[C@H](c4nc(CO)cs4)O[C@H]3C[C@@H]2O)ccc1C` [10(3), (2R,4aR,5S,6S,7aS)-5-[(3-ethyl-4-methylphenoxy)methyl]-2-[4-(hydroxymethyl)-1,3-thiazol-2-yl]octahydrocyclopenta[b]pyran-6-ol] was tested. Which inhibition in vivo at 1 µg/mL ([1]; administration concentration 1 μg/mL) did it give?
Answer: The inhibition in vivo at 1 µg/mL was 49%.

Question: Which inhibition in vivo at 10 µg/mL [1] does the source give for `OCc1csc([C@H]2CC[C@@H]3[C@@H](COc4ccc5c(c4)CCCC5)[C@@H](O)C[C@@H]3O2)n1` [10(7), (2R,4aR,5S,6S,7aS)-2-[4-(hydroxymethyl)-1,3-thiazol-2-yl]-5-[(5,6,7,8-tetrahydro-2-naphthalenyloxy)methyl]octahydrocyclopenta[b]pyran-6-ol] here?
Answer: Its inhibition in vivo at 10 µg/mL is 41%.

Question: `CCc1ccc(OC[C@@H]2[C@H]3CC[C@H](c4nc(CO)cs4)O[C@H]3C[C@@H]2O)cc1CC` [10(32), (2R,4aR,5S,6S,7aS)-5-[(3,4-diethylphenoxy)methyl]-2-[4-(hydroxymethyl)-1,3-thiazol-2-yl]octahydrocyclopenta[b]pyran-6-1] was tested. Which inhibition in vivo at 3 µg/mL [1] did it give?
Answer: Its inhibition in vivo at 3 µg/mL is 41%.

Question: With `OCc1csc([C@H]2CC[C@@H]3[C@@H](COc4ccc5c(c4)CCC5)[C@H](O)C[C@@H]3O2)n1` [2(4), (2R,4aR,5S,6R,7aS)-5-[(2,3-dihydro-1H-inden-5-yloxy)methyl]-2-[4-(hydroxymethyl)-1,3-thiazol-2-yl]octahydrocyclopenta[b]pyran-6-ol] as the molecule, how does the inhibition in vivo at 100 µg/mL [1] read?
Answer: Its inhibition in vivo at 100 µg/mL is 40%.

Question: `OCc1csc([C@H]2CC[C@@H]3[C@@H](COc4cccc5c4CCC5)[C@H](O)C[C@@H]3O2)n1` [2(14), (2R,4aR,5S,6R,7aS)-5-[(2,3-dihydro-1H-inden-4-yloxy)methyl]-2-[4-(hydroxymethyl)-1,3-thiazol-2-yl]octahydrocyclopenta[b]pyran-6-ol] was tested. Which inhibition in vivo at 30 µg/mL [1] did it give?
Answer: The inhibition in vivo at 30 µg/mL was 45%.

Question: With `CC(C)OC(=O)c1csc([C@H]2CC[C@@H]3[C@@H](COc4ccc5c(c4)CCC5)[C@H](O)C[C@@H]3O2)n1` [3(4)] as the molecule, how does the inhibition in vivo at 30 µg/mL [1] read?
Answer: Its inhibition in vivo at 30 µg/mL is 35%.

Question: For `CCc1ccc(OC[C@@H]2[C@H]3CC[C@H](c4nc(CO)cs4)O[C@H]3C[C@@H]2O)cc1C1CC1` [10(15), (2R,4aR,5S,6S,7aS)-5-[(3-cyclopropyl-4-ethylphenoxy)methyl]-2-[4-(hydroxymethyl)-1,3-thiazol-2-yl]octahydrocyclopenta[b]pyran-6-ol], which inhibition in vivo at 3 µg/mL [1] is on record?
Answer: Its inhibition in vivo at 3 µg/mL is 37%.

Question: How did the inhibition in vivo at 10 µg/mL [1] turn out when `CCc1cc(OC[C@@H]2[C@H]3CC[C@H](c4nc(CO)cs4)O[C@H]3C[C@H]2O)ccc1C` [2(9), (2R,4aR,5S,6R,7aS)-5-[(3-ethyl-4-methylphenoxy)methyl]-2-[4-(hydroxymethyl)-1,3-thiazol-2-yl]octahydrocyclopenta[b]pyran-6-ol] was run?
Answer: Its inhibition in vivo at 10 µg/mL is 52%.

Question: How did the inhibition in vivo at 10 µg/mL [1] turn out when `OCc1csc([C@H]2CC[C@@H]3[C@@H](COc4ccc5c(c4)CCCCC5)[C@@H](O)C[C@@H]3O2)n1` [10(16), (2R,4aR,5S,6S,7aS)-2-[4-(hydroxymethyl)-1,3-thiazol-2-yl]-5-[(6,7,8,9-tetrahydro-5H-benzo[7]annulen-2-yloxy)methyl]octahydrocyclopenta[b]pyran-6-ol] was run?
Answer: Its inhibition in vivo at 10 µg/mL is 45%.

Question: For `CCc1ccc(OC[C@@H]2[C@H]3CC[C@H](c4nc(CO)cs4)O[C@H]3C[C@@H]2O)cc1C1CCC1` [10(17), (2R,4aR,5S,6S,7aS)-5-[(3-cyclobutyl-4-ethylphenoxy)methyl]-2-[4-(hydroxymethyl)-1,3-thiazol-2-yl]octahydrocyclopenta[b]pyran-6-ol], which inhibition in vivo at 100 µg/mL [1] is on record?
Answer: The inhibition in vivo at 100 µg/mL was 57%.

Question: How did the inhibition in vivo at 10 µg/mL [1] turn out when `OCc1csc([C@H]2CC[C@@H]3[C@@H](COc4ccc(Cl)c(C5CC5)c4)[C@H](O)C[C@@H]3O2)n1` [2(10), (2R,4aR,5S,6R,7aS)-5-[(4-chloro-3-cyclopropylphenoxy)methyl]-2-[4-(hydroxymethyl)-1,3-thiazol-2-yl]octahydrocyclopenta[b]pyran-6-ol] was run?
Answer: Its inhibition in vivo at 10 µg/mL is 31%.

Question: How did the inhibition in vivo at 100 µg/mL [1] turn out when `CC(C)OC(=O)c1csc([C@H]2CC[C@@H]3[C@@H](COc4ccccc4)[C@H](O)C[C@@H]3O2)n1` [3(1), isopropyl 2-[(2R,4aR,5S,6R,7aS)-6-hydroxy-5-(phenoxymethyl)octahydrocyclopenta[b]pyran-2-yl]-1,3-thiazole-4-carboxylate] was run?
Answer: The inhibition in vivo at 100 µg/mL was 28%.

Question: For `OCc1csc([C@H]2CC[C@@H]3[C@@H](COc4ccc5ccoc5c4)[C@H](O)C[C@@H]3O2)n1` [2(8), (2R,4aR,5S,6R,7aS)-5-[(1-benzofuran-6-yloxy)methyl]-2-[4-(hydroxymethyl)-1,3-thiazol-2-yl]octahydrocyclopenta[b]pyran-6-ol], which inhibition in vivo at 30 µg/mL [1] is on record?
Answer: Its inhibition in vivo at 30 µg/mL is 55%.

Question: For `OCc1csc([C@H]2CC[C@@H]3[C@@H](COc4ccc5c(c4F)CCC5)[C@H](O)C[C@@H]3O2)n1` [2(16), (2R,4aR,5S,6R,7aS)-5-{[(4-fluoro-2,3-dihydro-1H-inden-S-yl)oxy]methyl}-2-[4-(hydroxymethyl)-1,3-thiazol-2-yl]octahydrocyclopenta[b]pyran-6-ol], which inhibition in vivo at 30 µg/mL [1] is on record?
Answer: Its inhibition in vivo at 30 µg/mL is 51%.

Question: How did the EC50 (human EP2) turn out when `O=C(O)c1csc([C@H]2CC[C@@H]3[C@@H](COc4ccc5c(c4)CC5)[C@H](O)C[C@@H]3O2)n1` [1(15), 2-{(2R,4aR,5S,6R,7aS)-5-[(bicyclo[4.2.0]octa-1,3,5-trien-3-yloxy)methyl]-6-hydroxyoctahydrocyclopenta[b]pyran-2-yl}-1,3-thiazole-4-carboxylic acid] was run?
Answer: The EC50 was 14 nM.

Question: Which EC50 (human EP2) does the source give for `O=C(O)c1csc([C@H]2CC[C@@H]3[C@@H](COc4ccc5c(c4)CCC5)[C@@H](O)C[C@@H]3O2)n1` [9(1), 2-{(2R,4aR,5S,6S,7aS)-5-[(2,3-dihydro-1H-inden-5-yloxy)methyl]-6-hydroxyoctahydrocyclopenta[b]pyran-2-yl}-1,3-thiazole-4-carboxylic acid] here?
Answer: Its EC50 is 0.86 nM.
